Laboratory results reported in patent US20240180900A1, “COMPOUNDS AND METHODS FOR THE TARGETED DEGRADATION OF ANDROGEN RECEPTOR” (Arvinas Operations, Inc., priority 2022, published 2024).
Values joined by “and” are separate entries in the source; they are usually repeats but may differ in a detail not shown here. Equal values may be shown once. Read-outs that look alike come from different tables or passages of the source.

Columns and labels:
[1] = safety in healthy volunteers (food/PPI study)
From the text: The study consisted of 2 independent cohorts: an open-label, randomized, 2-period, crossover Fed/Fasted Cohort to determine food effects; and an open-label, 2-period, fixed sequence PPI Cohort to evaluate interactions with esomeprazole.

[2] = target: T1, AR T878A/S889G (Homo sapiens, UniProt P10275, S889G/T878A); test: AR degradation in T-Rex-293 cell line, T878A/S889G; type: cell-based; conditions: T-Rex-293, ELISA
T1 construct: expressed in transfected cells; host or cells: T-REx-293
T1 sequence (P10275 whole entry T878A/S889G): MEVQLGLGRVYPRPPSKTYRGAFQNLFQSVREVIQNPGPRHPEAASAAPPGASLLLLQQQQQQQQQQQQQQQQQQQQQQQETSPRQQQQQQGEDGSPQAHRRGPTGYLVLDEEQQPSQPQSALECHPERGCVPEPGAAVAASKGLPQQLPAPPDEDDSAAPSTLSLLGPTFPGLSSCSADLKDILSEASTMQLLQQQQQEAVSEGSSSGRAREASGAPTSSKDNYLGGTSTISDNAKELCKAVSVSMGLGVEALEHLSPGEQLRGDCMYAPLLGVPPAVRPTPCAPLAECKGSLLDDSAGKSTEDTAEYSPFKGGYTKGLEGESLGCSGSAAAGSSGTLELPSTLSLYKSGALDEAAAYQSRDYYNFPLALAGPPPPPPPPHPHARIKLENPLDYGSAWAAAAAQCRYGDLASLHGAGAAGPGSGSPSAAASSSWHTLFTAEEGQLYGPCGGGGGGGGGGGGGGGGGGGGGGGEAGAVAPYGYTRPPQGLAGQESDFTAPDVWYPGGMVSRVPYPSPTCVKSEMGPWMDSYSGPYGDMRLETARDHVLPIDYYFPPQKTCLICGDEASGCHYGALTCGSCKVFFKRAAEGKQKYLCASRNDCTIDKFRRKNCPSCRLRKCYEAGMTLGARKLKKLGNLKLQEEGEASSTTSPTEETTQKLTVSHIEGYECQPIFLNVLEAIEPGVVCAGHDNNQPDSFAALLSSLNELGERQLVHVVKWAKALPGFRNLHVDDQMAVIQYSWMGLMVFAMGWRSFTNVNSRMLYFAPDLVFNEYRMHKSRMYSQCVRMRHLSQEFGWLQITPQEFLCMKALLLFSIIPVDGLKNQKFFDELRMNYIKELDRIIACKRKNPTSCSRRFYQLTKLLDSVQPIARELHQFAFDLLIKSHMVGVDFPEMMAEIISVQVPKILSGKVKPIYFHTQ
From the text: (§1) FIG. 3 is a graph showing Compound A's ability to degrade clinically relevant mutated forms AR.
(§2) To assess the ability of Compound A to degrade variants of the AR, vectors expressing wild-type AR or mutant AR proteins harboring clinically observed mutations in the ligand binding domain (13 with single amino acid changes or 4 with 2 amino acid changes) (Azad A. A., Volik S. V., Wyatt A. W., et al. Androgen receptor gene aberrations in circulating cell-free DNA: biomarkers of therapeutic resistance in castration-resistant prostate cancer. Clin Cancer Res. 2015; 21:2315-2324; Robinson D., Van Allen E. M., Wu Y. M., et al. Integrative clinical genomics of advanced prostate cancer. Cell. 2015; 161:1215-1228; Ledet E. M., Lilly M. B., Sonpavde G., et al. Comprehensive analysis of AR alterations in circulating tumor DNA from patients with advanced prostate cancer. Oncologist.

[3] = target: T2, AR S889G (Homo sapiens, UniProt P10275, S889G); test: AR degradation in T-Rex-293 cell line, S889G; type: cell-based; conditions: T-Rex-293, ELISA
T2 construct: expressed in transfected cells; host or cells: T-REx-293
T2 sequence (P10275 whole entry S889G): as the sequence (P10275 whole entry T878A/S889G) above, with A878T counted along it
From the text: as §1, §2

[4] = test system: PSA; test: Phase 1/2 trial in mCRPC: PSA response; type: in vivo, human
Procedure: Evaluable analysis set include all Compound A treated participants with baseline PSA assessment and at least a C1D28 or later postbaseline PSA assessment. A PSA90 and PSA50 and PSA30 response is defined as a =90% or 50% or 30% decline in PSA from baseline PSA value, respectively.
Patients in the Phase 1 studies were administered from 40 mg to 500 mg Compound A once daily. Patients in the Phase 2 studies were administered 100 mg or 300 mg Compound A once daily.
In the Phase 1 and interim Phase 2 trial, AR LBD mutations were present in 28% (13 of 47) of patients' tumors. […] (FIG. 7; AR: androgen receptor; LBD: ligand-binding domain; PSA: prostate-specific antigen; PSA30: best PSA declines ≥30%; PSA50: best PSA declines ≥50%; H875: H875Y; T878: T878A or T878S.)
Evaluable analysis set include all Compound A treated participants with baseline PSA assessment and at least a C1D28 or later postbaseline PSA assessment. A PSA90 and PSA50 and PSA30 response is defined as =90% or 50% or 30% decline in PSA from baseline PSA value.

[5] = food/PPI effect on single-dose PK in healthy volunteers (phase 1); type: in vivo, human; conditions: for CL/F: read-out: CL/F_Obs, Geometric Mean (Geometric CV %) (converted); for Vd/F: read-out: Vz/F, Geometric Mean (Geometric CV %)
Procedure: The primary endpoints were AUCinf and Cmax. Additional parameters measured included AUClast and Tmax.
This phase 1, open-label study included a crossover, fed/fasted cohort and a fixed-sequence PPI cohort. For the fed/fasted cohort, healthy male volunteers received a single oral dose of Compound A 200 mg in a fasted state during treatment A and in a fed state, following a high-calorie/high-fat meal, during treatment B. Participants were randomized to a dosing sequence of treatments AB or BA. For the PPI cohort, a single oral dose of Compound A 300 mg was administered alone in a fed state during treatment C, and during treatment D, participants received esomeprazole 40 mg for 5 days prior to a single oral dose of Compound A 300 mg on day 5 in a fed state. Participants were assigned to a fixed-dosing sequence of treatments CD. There was a 24-day washout period between Compound A treatments. PK blood samples were collected predose and at selected times up to 312 hours post-Compound A dose. Primary endpoints were area under the plasma concentration-time curve from the time of dosing extrapolated to infinity (AUCinf) and maximum plasma concentration (Cmax) of Compound A. Secondary endpoints included additional PK parameters and safety and tolerability.
The effect of food and a PPI on the PK of Compound A was evaluated in healthy participants. PK results are presented in Tables 2 and 3 and are summarized here.

[6] = Fed/Fasted Cohort, 200 mg, 14 healthy participants
[7] = healthy volunteer study, both cohorts
[8] = 200 mg, fed (test) vs fasted (reference)
[9] = 300 mg, fed, esomeprazole 40 mg
[10] = male, human, plasma, oral, 40 mg Esomeprazole + 300 mg
[11] = male, human, plasma, oral, 200 mg, Fasted
[12] = male, human, plasma, oral, 200 mg, Fed
[13] = male, human, plasma, oral, 300 mg, 300 mg Alone

COc1cc(O[C@H]2C(C)(C)[C@H](NC(=O)c3ccc(N4CCC(CN5CCN(c6ccc(C(=O)N[C@H]7CCC(=O)NC7=O)c(F)c6)CC5)CC4)cc3)C2(C)C)ccc1C#N [Compound A, 4-(4-((1-(4-(((1R,3R)-3-(4-cyano-3-methoxyphenoxy)-2,2,4,4-tetramethylcyclobutyl)carbamoyl)phenyl)piperidin-4-yl)methyl)piperazin-1-yl)-N—((S)-2,6-dioxopiperidin-3-yl)-2-fluorobenzamide]
severity of TEAEs ([1]; Fed/Fasted Cohort): All TEAEs were Grade 1
headache (TEAE) [1, 6]: 4 (28.6%) participants
participants reporting TEAEs [1, 6]: 5 (35.7%) participants
participants with at least one TEAE considered related to Compound A [1, 6]: 3 (21.4%) participants
TRAE dizziness ([1]; Fed/Fasted Cohort, Grade 1): 1 participant
TRAE fatigue ([1]; Fed/Fasted Cohort, Grade 1): 1 participant
TRAE headache ([1]; Fed/Fasted Cohort, Grade 1): 2 participants
TEAEs of Grade 3 or higher ([1]; PPI Cohort): no TEAEs of Grade 3 or higher
participants reporting TEAEs ([1]; PPI Cohort, 300 mg, 16 healthy participants): 8 (50.0%) participants
participants with Grade 2 events ([1]; PPI Cohort, pain in the extremity and CRP increased): 2 (12.5%) participants
tolerability of a single oral dose ([1]; healthy male participants, fasting, fed, or with esomeprazole): generally well tolerated
deaths, SAEs, discontinuations due to AEs [1, 7]: no deaths, SAEs, or participant discontinuations due to AEs
laboratory results, vital signs, physical examinations, 12-lead ECGs, C-SSRS [1, 7]: no clinically significant findings
DC50 [2]: 3.6 nM
DC50 [3]: 3.1 nM
PSA decline in patient with mCRPC with wild-type AR ([4]; FIG. 14): Deep PSA decline
patients with AR LBD mutations achieving PSA50 ([4]; Phase 1 and interim Phase 2): 42%
patients with AR LBD mutations achieving PSA50 ([4]; as the trial progressed, 7 of 17): 41%
delay of median Tmax, fed vs fasted ([5]; 200 mg single oral dose): ≈ 4 hours
AUCinf Geometric LS Mean Ratio (fed/fasted), relative bioavailability [5, 8]: 306.34% and 306.3%
AUClast Geometric LS Mean Ratio (fed/fasted), relative bioavailability [5, 8]: 313.03% and 313.0%
Cmax Geometric LS Mean Ratio (fed/fasted), relative bioavailability [5, 8]: 394.46% and 394.5%
AUCinf Geometric LS Mean Ratio (with esomeprazole/alone) ([5]; 300 mg, fed): 89.2%
AUClast Geometric LS Mean Ratio (with esomeprazole/alone) ([5]; 300 mg, fed): 88.1%
Cmax Geometric LS Mean Ratio (with esomeprazole/alone) ([5]; 300 mg, fed): 80.16% and 80.2%
reduction in AUCinf with esomeprazole vs Compound A alone [5, 9]: ~11%
reduction in Cmax with esomeprazole vs Compound A alone [5, 9]: ≈ 20% and ~20%
effect of esomeprazole on Compound A exposure ([5]; 300 mg, moderate-fat fed conditions): small effect, but not clinically significant
increase of extent of systemic exposure (AUCinf), fed vs fasted ([5]; high fat meal vs fasted, humans): 3.1 fold and ~3 fold
AUC(0-inf) ([5]; male, human, plasma, oral, 40 mg Esomeprazole + 300 mg, read-out: AUCinf-Obs, Geometric Mean (Geometric CV %)): 9720 ng·h/mL
AUC(0-t) ([5]; male, human, plasma, oral, 40 mg Esomeprazole + 300 mg, read-out: AUClast, Geometric Mean (Geometric CV %)): 9370 ng·h/mL
CL/F [5, 10]: 515 mL/min
Cmax ([5]; male, human, plasma, oral, 40 mg Esomeprazole + 300 mg, read-out: Cmax, Geometric Mean (Geometric CV %)): 117 ng/mL
half-life ([5]; male, human, plasma, oral, 40 mg Esomeprazole + 300 mg, read-out: T1/2, Geometric Mean (Geometric CV %) (converted)): 65.5 h
Tmax ([5]; male, human, plasma, oral, 40 mg Esomeprazole + 300 mg, read-out: Tmax): 10 h
Vd/F [5, 10]: 2920 L
AUC(0-inf) ([5]; male, human, plasma, oral, 200 mg, 200 mg alone, fasted, read-out: AUCinf, Geometric LS Mean): 3460 ng·h/mL
AUC(0-t) ([5]; male, human, plasma, oral, 200 mg, 200 mg alone, fasted, read-out: AUClast, Geometric LS Mean): 3300 ng·h/mL
Cmax ([5]; male, human, plasma, oral, 200 mg, 200 mg alone, fasted, read-out: Cmax, Geometric LS Mean): 36 ng/mL
AUC(0-inf) ([5]; male, human, plasma, oral, 200 mg, 200 mg alone, fed, read-out: AUCinf, Geometric LS Mean): 10600 ng·h/mL
AUC(0-t) ([5]; male, human, plasma, oral, 200 mg, 200 mg alone, fed, read-out: AUClast, Geometric LS Mean): 10300 ng·h/mL
Cmax ([5]; male, human, plasma, oral, 200 mg, 200 mg alone, fed, read-out: Cmax, Geometric LS Mean): 142 ng/mL
AUC(0-inf) ([5]; male, human, plasma, oral, 200 mg, Fasted, read-out: AUCinf-Obs, Geometric Mean (Geometric CV %)): 3460 ng·h/mL
AUC(0-t) ([5]; male, human, plasma, oral, 200 mg, Fasted, read-out: AUClast, Geometric Mean (Geometric CV %)): 3300 ng·h/mL
CL/F [5, 11]: 964 mL/min
Cmax ([5]; male, human, plasma, oral, 200 mg, Fasted, read-out: Cmax, Geometric Mean (Geometric CV %)): 36.1 ng/mL
half-life ([5]; male, human, plasma, oral, 200 mg, Fasted, read-out: T1/2, Geometric Mean (Geometric CV %) (converted)): 65.3 h
Tmax ([5]; male, human, plasma, oral, 200 mg, Fasted, read-out: Tmax): 7.75 h
Vd/F [5, 11]: 5450 L
AUC(0-inf) ([5]; male, human, plasma, oral, 200 mg, Fed, read-out: AUCinf-Obs, Geometric Mean (Geometric CV %)): 10600 ng·h/mL
AUC(0-t) ([5]; male, human, plasma, oral, 200 mg, Fed, read-out: AUClast, Geometric Mean (Geometric CV %)): 10300 ng·h/mL
CL/F [5, 12]: 315 mL/min
Cmax ([5]; male, human, plasma, oral, 200 mg, Fed, read-out: Cmax, Geometric Mean (Geometric CV %)): 142 ng/mL
half-life ([5]; male, human, plasma, oral, 200 mg, Fed, read-out: T1/2, Geometric Mean (Geometric CV %) (converted)): 58.7 h
Tmax ([5]; male, human, plasma, oral, 200 mg, Fed, read-out: Tmax): 12 h
Vd/F [5, 12]: 1600 L
AUC(0-inf) ([5]; male, human, plasma, oral, 200 mg, fasted, read-out: AUCinf): 3460 ng·h/mL
AUC(0-inf) ([5]; male, human, plasma, oral, 200 mg, fed (high-fat meal), read-out: AUCinf): 10600 ng·h/mL
half-life ([5]; male, human, plasma, oral, 200 mg, under both fed and fasted conditions, read-out: mean T1/2): 60 to 76 h
Tmax ([5]; male, human, plasma, oral, 300 mg with esomeprazole 40 mg, fed, read-out: median Tmax): 10 h
AUC(0-inf) ([5]; male, human, plasma, oral, 300 mg, 300 mg Alone, read-out: AUCinf-Obs, Geometric Mean (Geometric CV %)): 10900 ng·h/mL
AUC(0-t) ([5]; male, human, plasma, oral, 300 mg, 300 mg Alone, read-out: AUClast, Geometric Mean (Geometric CV %)): 10600 ng·h/mL
CL/F [5, 13]: 459 mL/min
Cmax ([5]; male, human, plasma, oral, 300 mg, 300 mg Alone, read-out: Cmax, Geometric Mean (Geometric CV %)): 146 ng/mL
half-life ([5]; male, human, plasma, oral, 300 mg, 300 mg Alone, read-out: T1/2, Geometric Mean (Geometric CV %) (converted)): 58.4 h
Tmax ([5]; male, human, plasma, oral, 300 mg, 300 mg Alone, read-out: Tmax): 7 h
Vd/F [5, 13]: 2320 L
AUC(0-inf) ([5]; male, human, plasma, oral, 300 mg, 300 mg alone, fed, read-out: AUCinf, Geometric LS Mean): 10900 ng·h/mL
AUC(0-t) ([5]; male, human, plasma, oral, 300 mg, 300 mg alone, fed, read-out: AUClast, Geometric LS Mean): 10600 ng·h/mL
Cmax ([5]; male, human, plasma, oral, 300 mg, 300 mg alone, fed, read-out: Cmax, Geometric LS Mean): 146 ng/mL
Tmax ([5]; male, human, plasma, oral, 300 mg, 300 mg alone, fed, read-out: median Tmax): 7 h
AUC(0-inf) ([5]; male, human, plasma, oral, 300 mg, 300 mg with esomeprazole, fed, read-out: AUCinf, Geometric LS Mean): 9720 ng·h/mL
AUC(0-t) ([5]; male, human, plasma, oral, 300 mg, 300 mg with esomeprazole, fed, read-out: AUClast, Geometric LS Mean): 9370 ng·h/mL
Cmax ([5]; male, human, plasma, oral, 300 mg, 300 mg with esomeprazole, fed, read-out: Cmax, Geometric LS Mean): 117 ng/mL
delay of median Tmax with esomeprazole ([5]; male, human, plasma, oral, 300 mg, fed): 3 h
Tmax ([5]; male, human, plasma, po, 200 mg, 200 mg single oral dose, fasted, read-out: median Tmax): 7.75 h
Tmax ([5]; male, human, plasma, po, 200 mg, 200 mg single oral dose, fed (high-fat meal), read-out: median Tmax): 12 h
